Measured values as given in patent publication US12558349B2, “Methods of treating infections in overweight and obese patients using antibiotics” (MELINTA SUBSIDIARY CORP., priority 2013, dated 2026).
Where two headings read alike, the source gives them in different places.

How the values were obtained:
[1] = Phase 2b clinical trial: adverse events; settings: for Overall adverse event rates: across the Phase 2b study; for Specific limiting toxicity: human, in vivo
[2] = tested on: Acute Bacterial Skin and Skin Structure Infections (ABSSSI); assay: Phase 2b clinical trial in ABSSSI: Investigators' Global Assessment of Cure; assay type: in vivo, human; settings: for Response Rate, Investigators' Global Assessment of Cure: ITT; for Response Rate, Investigators' Global Assessment of Cure / Percent Clinical Cure (ITT): delafloxacin 300 mg BID, Zyvox 600 mg BID, vancomycin 1,000 to 2,000 mg BID, comparators with and without aztreonam; for Percent Clinical Cure (ITT): Investigators' Global Assessment of Cure; for Clinical activity with increased patient weight: Phase 2b data by weight/BMI
Source text: (§1) The term “cure” or “Investigators' Global Assessment of Cure” as used herein refers to complete resolution of all signs and symptoms at the follow-up visit.

Confirmed MRSA = assay: Phase 2b clinical trial: Investigators' Global Assessment of Cure in Patients with Confirmed MRSA; assay type: in vivo, human; settings: comparators with and without aztreonam; for Response Rate, Investigators' Global Assessment of Cure in Patients with Confirmed MRSA: MITT; for Percent Clinical Cure (MITT): patients with confirmed MRSA
Source text: as §1

[3] = tested on: Acute Bacterial Skin and Skin Structure Infections (ABSSSI); assay: Phase 2b clinical trial: Objective Endpoint at 48 to 72 hours (cessation of lesion spread and absence or resolution of fever); assay type: in vivo, human; settings: comparators with and without aztreonam; for Percent Cessation of Spread of Erythema and Absence of Fever at 48 to 72 Hours: secondary endpoint
[4] = human, in vivo
[5] = tested on: Acute Bacterial Skin and Skin Structure Infections (ABSSSI); assay: Phase 2b clinical trial: reduction in the size of the lesion at 48 to 72 hours; assay type: in vivo, human

Row | SMILES | Leading adverse event ([1]; Phase 2b study) | Most common specific adverse event ([1]; Phase 2b study) | Overall adverse event rates [1] | Specific limiting toxicity [1] | Response Rate, Investigators' Global Assessment of Cure [2] | Percent Clinical Cure (ITT) [2] | Clinical activity with increased patient weight [2] | Response Rate, Investigators' Global Assessment of Cure in Patients with Confirmed MRSA (Confirmed MRSA) | Percent Clinical Cure (MITT) (Confirmed MRSA) | Response Rate, Objective Endpoint at 48 to 72 hours [3] | Percent Cessation of Spread of Erythema and Absence of Fever at 48 to 72 Hours [3] | other results
1 | CC(=O)NC[C@H]1CN(c2ccc(N3CCOCC3)c(F)c2)C(=O)O1 [Zyvox, N-[[(5S)-3-[3-fluoro-4-(4-morpholinyl)phenyl]-2-oxo-5-oxazolidinyl]methyl]acetamide] | GI disorder | nausea | 72% | bone marrow | 50/77 | 84.9% | decline | 21/34 | 61.8% | 56/75 | 74.7% | Subjects who experienced thrombocytopenia ([1]; Phase 2b study arm): two; Percent Cessation of Spread of Erythema and Absence of Fever at 48 to 72 Hours ([3]; listed as linezolid): ~75%
2 | CN[C@H](CC(C)C)C(=O)N[C@H]1C(=O)N[C@@H](CC(N)=O)C(=O)N[C@H]2C(=O)N[C@H]3C(=O)N[C@H](C(=O)N[C@H](C(=O)O)c4cc(O)cc(O)c4-c4cc3ccc4O)[C@H](O)c3ccc(c(Cl)c3)Oc3cc2cc(c3O[C@@H]2O[C@H](CO)[C@@H](O)[C@H](O)[C@H]2O[C@H]2C[C@](C)(N)[C@H](O)[C@H](C)O2)Oc2ccc(cc2Cl)[C@H]1O [Vancomycin] | disorders of the skin | pruritus | 65% | – | 53/98 | 54.1% | decline | 21/32 | 65.6% | 69/95 | 72.6% | Patients who experienced renal issues ([1]; Phase 2b study arm): three; Renal failures ([1]; Phase 2b study arm, among the renal issues): two; Percent Cessation of Spread of Erythema and Absence of Fever at 48 to 72 Hours ([3]; listed as vancomycin): ~73%; Specific limiting toxicity [4]: kidney
3 | Nc1nc(-n2cc(C(=O)O)c(=O)c3cc(F)c(N4CC(O)C4)c(Cl)c32)c(F)cc1F [Delafloxacin, 1-(6-amino-3,5-difluoro-2-pyridinyl)-8-chloro-6-fluoro-1,4-dihydro-7-(3-hydroxy-1-azetidinyl)-4-oxo-3-quinolinecarboxylic acid] | gastrointestinal, or GI, disorder | mild to moderate diarrhea | 74% | no specific limiting toxicity | 57/81 | 70.4% | maintained | 19/29 | 65.56% | 61/78 | 78.2% | Percentage of patients with a 30% or greater reduction in the size of the lesion, versus comparators [5]: greater percentage of patients; Evidence for toxicities common in the fluoroquinolone class (phototoxicity, elevated liver enzymes, dysglycemia, QT prolongation) ([1]; Phase 2b study): did not demonstrate evidence; Efficacy compared to vancomycin, primary endpoint Investigators' Global Assessment of Cure ([2]; 95% Confidence Interval −30.3%, −2.3%, p=0.031): statistically significant efficacy advantage; Percent Cessation of Spread of Erythema and Absence of Fever at 48 to 72 Hours ([3]; listed as delafloxacin): approximately 78%
